Experimental data published in publication PMC5515969, “Effects of 31 FDA approved small-molecule kinase inhibitors on isolated rat liver mitochondria” (Archives of Toxicology, 2016).
Read-outs that look alike come from different tables or passages of the source. Marks after values point to notes of the source that are not given here.

How the values were obtained:
[1] = system: isolated rat liver mitochondria; experiment: Mitochondrial oxygen consumption (glutamate/malate or succinate driven, state 4 and state 3); format: biochemical; conditions: for Glutamate/malate driven respiration State 3 / Glutamate/malate driven respiration State 4 / Succinate-driven respiration State 3 / Succinate-driven respiration State 4: oxygen consumption, DMSO-treated = 1; on State 3 respiration driven by succinate at 10XCmax: key: 0 indicates that the drug had no effects (negative); on State 3 respiration driven by succinate at 1XCmax: key: 0 indicates that the drug had no effects (negative)
Outline: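 Rat liver mitochondria (1 mg/ml protein) exposed 5 min to kinase inhibitors in 0.1% DMSO, then O2 consumption measured by Clark-type electrode with glutamate/malate or succinate (state 4), ADP added after 3 min (state 3). Rates normalized to 0.1% DMSO controls set to 1.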

[2] = molecular target: T1, RCC II (Rattus norvegicus, UniProt P21913+Q641Z9+Q6PCT8+Q920L2); experiment: RCC II activity in submitochondrial particles; format: biochemical; set-up: key: activity relative to DMSO-treated controls (control set as 1 = 100%); conditions: relative to DMSO treated samples
T1 construct: Submitochondrial particles were prepared by subjecting the intact mitochondria to three successive freeze–thaw cycles; from tissue; host or cells: rat liver mitochondria, used as submitochondrial particles
Outline: (§1)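 First, submitochondrial particles (1 mg/ml) are incubated with inhibitor for 15 min. Next, complex activities are followed spectrophotometrically, with RCC I taken as the difference between buffers lacking and containing rotenone. Finally, activities are expressed relative to DMSO controls set at 1.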

[3] = system: RCC III; experiment: RCC III activity in submitochondrial particles; format: biochemical, rat; conditions: 10-fold Cmax; 15 min; DMSO-treated = 100
Outline: as §1

[4] = system: RCC IV; experiment: RCC IV activity in submitochondrial particles; format: biochemical, rat; conditions: 10-fold Cmax; 15 min; DMSO-treated = 100
Outline: as §1

[5] = system: RCC V; experiment: RCC V activity in submitochondrial particles; format: biochemical, rat; on RCC V at 5XCmax: key: 0 indicates that the drug had no effects (negative)
Outline: as §1

[6] = system: isolated rat liver mitochondria; experiment: Mitochondrial inner membrane potential (MMP), Rhodamine 123; format: biochemical
From the text: Fig. 3 KI effects on mitochondrial inner membrane potential (MMP). […] In a, c, data are means and standard derivations from three separate experiments. *p < 0.05 as compared to DMSO-treated samples at the end of experiments. In b, data are means of two independent experiments

[7] = system: isolated rat liver mitochondria; conditions: positive control alamethicin treated samples
[8] = cited from earlier work
[9] = system: isolated rat liver mitochondria; experiment: Mitochondrial ROS production (CM-H2DCFDA)
[10] = 1XCmax, DMSO treated samples set as 1
[11] = 2.5XCmax, DMSO treated samples set as 1
[12] = 5XCmax, DMSO treated samples set as 1
[13] = 10XCmax, DMSO treated samples set as 1

T1 sequence (Q920L2 35-656): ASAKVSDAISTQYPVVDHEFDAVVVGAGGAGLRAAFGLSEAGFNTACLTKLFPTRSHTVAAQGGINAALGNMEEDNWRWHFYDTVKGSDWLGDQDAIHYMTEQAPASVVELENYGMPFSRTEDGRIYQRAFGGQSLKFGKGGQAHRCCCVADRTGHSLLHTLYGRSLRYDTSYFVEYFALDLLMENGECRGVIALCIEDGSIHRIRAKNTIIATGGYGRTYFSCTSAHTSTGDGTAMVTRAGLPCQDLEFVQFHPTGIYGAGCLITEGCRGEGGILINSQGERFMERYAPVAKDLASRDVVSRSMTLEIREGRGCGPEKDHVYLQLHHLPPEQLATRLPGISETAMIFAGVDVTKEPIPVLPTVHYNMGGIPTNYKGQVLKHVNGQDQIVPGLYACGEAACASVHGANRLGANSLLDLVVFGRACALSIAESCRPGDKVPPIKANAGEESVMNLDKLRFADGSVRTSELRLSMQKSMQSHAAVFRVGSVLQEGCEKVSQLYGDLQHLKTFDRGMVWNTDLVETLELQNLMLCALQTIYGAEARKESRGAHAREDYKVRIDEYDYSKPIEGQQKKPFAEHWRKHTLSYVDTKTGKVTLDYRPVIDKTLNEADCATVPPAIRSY
T1 sequence (P21913 31-282): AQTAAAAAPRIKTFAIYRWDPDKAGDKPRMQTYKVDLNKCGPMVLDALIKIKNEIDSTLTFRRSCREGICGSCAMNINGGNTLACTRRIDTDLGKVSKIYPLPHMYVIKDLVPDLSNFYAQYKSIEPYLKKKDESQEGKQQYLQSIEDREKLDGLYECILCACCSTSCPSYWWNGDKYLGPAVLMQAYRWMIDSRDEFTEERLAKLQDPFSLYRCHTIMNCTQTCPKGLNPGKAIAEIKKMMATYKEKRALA
T1 sequence (Q641Z9 1-169): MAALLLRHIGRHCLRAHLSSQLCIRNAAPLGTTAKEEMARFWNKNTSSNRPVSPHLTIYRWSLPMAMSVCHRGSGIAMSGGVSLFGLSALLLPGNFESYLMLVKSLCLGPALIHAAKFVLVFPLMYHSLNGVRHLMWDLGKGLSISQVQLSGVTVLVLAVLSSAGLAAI
T1 sequence (Q6PCT8 57-159): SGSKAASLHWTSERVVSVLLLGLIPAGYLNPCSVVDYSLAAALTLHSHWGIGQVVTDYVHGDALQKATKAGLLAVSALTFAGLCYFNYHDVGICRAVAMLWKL

CNC(=O)c1cc(Oc2ccc(NC(=O)Nc3ccc(Cl)c(C(F)(F)F)c3)c(F)c2)ccn1 [Regorafenib]
Glutamate/malate driven respiration State 3 ([1]; 1-fold Cmax): 2.33 ± 0.06 | Glutamate/malate driven respiration State 4 ([1]; 1-fold Cmax): 7.45 ± 0.17 | Succinate-driven respiration State 3 ([1]; 1-fold Cmax): 1.05 ± 0.07 | Succinate-driven respiration State 4 ([1]; 1-fold Cmax): 2.95 ± 0.08 | State 3 respiration driven by glutamate/malate at 1XCmax [1, 10]: 2.33±0.06 | State 3 respiration driven by succinate at 1XCmax [1, 10]: 0 | State 4 respiration driven by glutamate/malate at 1XCmax [1, 10]: 7.45±0.17 | State 4 respiration driven by succinate at 1XCmax [1, 10]: 2.95±0.08 | Glutamate/malate driven respiration State 3 ([1]; 2.5-fold Cmax): 2.51 ± 0.04 | Glutamate/malate driven respiration State 4 ([1]; 2.5-fold Cmax): 5.51 ± 0.35 | Succinate-driven respiration State 3 ([1]; 2.5-fold Cmax): 0.84 ± 0.04 | Succinate-driven respiration State 4 ([1]; 2.5-fold Cmax): 3.59 ± 0.14 | State 3 respiration driven by glutamate/malate at 2.5XCmax [1, 11]: 2.51±0.04 | State 3 respiration driven by succinate at 2.5XCmax [1, 11]: 0 | State 4 respiration driven by glutamate/malate at 2.5XCmax [1, 11]: 5.51±0.35 | State 4 respiration driven by succinate at 2.5XCmax [1, 11]: 3.59±0.14 | Glutamate/malate driven respiration State 3 ([1]; 5-fold Cmax): 1.33 ± 0.04 | Glutamate/malate driven respiration State 4 ([1]; 5-fold Cmax): 3.82 ± 0.72 | Succinate-driven respiration State 3 ([1]; 5-fold Cmax): 0.83 ± 0.03 | Succinate-driven respiration State 4 ([1]; 5-fold Cmax): 1.69 ± 0.09 | State 3 respiration driven by glutamate/malate at 5XCmax [1, 12]: 1.33±0.04 | State 3 respiration driven by succinate at 5XCmax [1, 12]: 0 | State 4 respiration driven by glutamate/malate at 5XCmax [1, 12]: 3.82±0.72 | State 4 respiration driven by succinate at 5XCmax [1, 12]: 1.69±0.09 | Glutamate/malate driven respiration State 3 ([1]; 10-fold Cmax): 1.36 ± 0.03 | Glutamate/malate driven respiration State 4 ([1]; 10-fold Cmax): 3.84 ± 0.34 | Succinate-driven respiration State 3 ([1]; 10-fold Cmax): 0.82 ± 0.19 | Succinate-driven respiration State 4 ([1]; 10-fold Cmax): 1.78 ± 0.19 | State 3 respiration driven by glutamate/malate at 10XCmax [1, 13]: 1.36±0.03 | State 3 respiration driven by succinate at 10XCmax [1, 13]: 0 | State 4 respiration driven by glutamate/malate at 10XCmax [1, 13]: 3.84±0.34 | State 4 respiration driven by succinate at 10XCmax [1, 13]: 1.78±0.19 | effect on state 4 respiration ([1]; highest tested concentrations): significant increases | lowest concentration significantly affecting mitochondrial oxygen consumption ([1]; tested at 1 to 100-fold Cmax): equal to Cmax | RCC II at 1.0XCmax ([2]; 1.0XCmax): 0 | RCC II at 2.5XCmax ([2]; 2.5XCmax): 0 | RCC II at 5XCmax ([2]; 5XCmax): 0 | RCC II at 10XCmax ([2]; 10XCmax): 83.50±2.91 | RCC activity III [3]: 90.31 ± 13.61 % of control | RCC activity IV [4]: 95.37 ± 6.45 % of control | RCC V at 5XCmax ([5]; 5XCmax, relative to DMSO treated samples): 0 | RCC activity V ([5]; 10-fold Cmax, 15 min, DMSO-treated = 100): 90.36 ± 13.39 % of control | lowest concentration decreasing MMP [6]: onefold | MMP measured by Rhodamine 123 at 1XCmax ([6]; 1XCmax, difference in signal between KI and DMSO treated samples at the end of experiments): 4244±687* | MMP measured by Rhodamine 123 at 2.5XCmax ([6]; 2.5XCmax, difference in signal between KI and DMSO treated samples at the end of experiments): 4112±722* | MMP measured by Rhodamine 123 at 5XCmax ([6]; 5XCmax, difference in signal between KI and DMSO treated samples at the end of experiments): 3961±724* | MMP measured by Rhodamine 123 at 10XCmax ([6]; 10XCmax, difference in signal between KI and DMSO treated samples at the end of experiments): 3711±588* | effect on MMP ([6]; up to 100-fold Cmax or highest testable concentration): decrease in MMP | Cytochrome c release 1XCmax ([7]; 1XCmax): 10.72±1.87 percentage of the positive control group | Cytochrome c release 2.5XCmax ([7]; 2.5XCmax): 22.56±1.84 percentage of the positive control group | Cytochrome c release 5XCmax ([7]; 5XCmax): 10.26±0.36 percentage of the positive control group | Cytochrome c release 10XCmax ([7]; 10XCmax): 7.42±0.36 percentage of the positive control group | DILI potential (based on labeling) ([8]; 1 = DILI positive, 0 = negative, ref product labeling): 1 | Labeling for DILI ([8]; BBW: black box warning, W&P: Warnings and Precautions, ref product labeling): BBW: fatal DILI | labeling for DILI ([8]; W&P warnings and precautions, BBW black box warnings, ref FDA product labeling): BBW: fatal DILI | DILI potential (based on labeling) ([8]; ref FDA product labeling): 1 | ROS measured by CM-H2DCFDA at 1XCmax [9, 10]: 0 | ROS measured by CM-H2DCFDA at 2.5XCmax [9, 11]: 0 | ROS measured by CM-H2DCFDA at 5XCmax [9, 12]: 0 | ROS measured by CM-H2DCFDA at 10XCmax [9, 13]: 0 | effect on ROS production ([9]; highest tested concentrations): neither of them affected ROS production
